From EPA's CvTdb concentration-time database

Columns and labels:
[1] = system: Rat; assay: concentration in plasma after dosing; details: 4 h; dosed: Gemfibrozil; 4.29 mg/kg; oral; Male; Sprague-Dawley
[2] = system: Rat; assay: concentration in plasma after dosing; details: 0.5 h; dosed: Gemfibrozil; 4.29 mg/kg; oral; Male; Sprague-Dawley
[3] = system: Rat; assay: concentration in plasma after dosing; details: 10 h; dosed: Gemfibrozil; 4.29 mg/kg; oral; Male; Sprague-Dawley
[4] = system: Rat; assay: concentration in plasma after dosing; details: 18 h; dosed: Gemfibrozil; 4.29 mg/kg; oral; Male; Sprague-Dawley
[5] = system: Rat; assay: concentration in plasma after dosing; details: 6 h; dosed: Gemfibrozil; 4.29 mg/kg; oral; Male; Sprague-Dawley
[6] = system: Rat; assay: concentration in brain after dosing; details: 7 min; dosed: 2-Methyltetrahydrofuran; 40 mg/kg; iv; Male; Harlan Sprague Dawley
[7] = system: Rat; assay: concentration in brain after dosing; details: 0.2 h; dosed: 2-Methyltetrahydrofuran; 40 mg/kg; iv; Male; Harlan Sprague Dawley
[8] = system: Rat; assay: concentration in plasma after dosing; details: 0.2 h; dosed: 2-Methyltetrahydrofuran; 40 mg/kg; iv; Male; Harlan Sprague Dawley
[9] = system: Rat; assay: concentration in brain after dosing; details: 0.2 h; dosed: 2-Methyltetrahydrofuran; 40 mg/kg; iv; Male; Harlan Sprague Dawley; remark: listed apart in the source
[10] = system: Rat; assay: concentration in plasma after dosing; details: 4 h; dosed: 2-Methyltetrahydrofuran; 40 mg/kg; iv; Male; Harlan Sprague Dawley
[11] = system: Rat; assay: concentration in brain after dosing; details: 7 min; dosed: 2-Methyltetrahydrofuran; 40 mg/kg; iv; Male; Harlan Sprague Dawley; remark: listed apart in the source
[12] = system: Rat; assay: concentration in brain after dosing; details: 0.75 h; dosed: 2-Methyltetrahydrofuran; 40 mg/kg; iv; Male; Harlan Sprague Dawley
[13] = system: rat; assay: concentration in blood after dosing; details: dosed: trichloroethylene
[14] = system: Rat; assay: concentration in brain after dosing; details: 1848 h; dosed: Perfluorooctane Sulfonate; 20 mg/kg; oral; Male; Harlan Sprague Dawley
[15] = system: Rat; assay: concentration in plasma after dosing; details: dosed: Perfluorooctane Sulfonate, 2 mg/kg, iv, Female, F344
[16] = system: Rat; assay: concentration in liver after dosing; details: 1848 h; dosed: Perfluorooctane Sulfonate; 2 mg/kg; oral; Female; Harlan Sprague Dawley
[17] = system: Rat; assay: concentration in liver after dosing; details: 24 h; dosed: Perfluorooctane Sulfonate; 2 mg/kg; oral; Female; Harlan Sprague Dawley
[18] = system: Rat; assay: concentration in plasma after dosing; details: dosed: Perfluorooctane Sulfonate, 2 mg/kg, oral, Female, Harlan Sprague Dawley
[19] = system: Rat; assay: concentration in plasma after dosing; details: dosed: Perfluorooctane Sulfonate, 2 mg/kg, iv, Female, Harlan Sprague-Dawley
[20] = system: Rat; assay: concentration in liver after dosing; details: 6 h; dosed: Perfluorooctane Sulfonate; 2 mg/kg; oral; Female; Harlan Sprague Dawley
[21] = system: Rat; assay: concentration in liver after dosing; details: 24 h; dosed: Perfluorooctane Sulfonate; 20 mg/kg; oral; Male; Harlan Sprague Dawley
[22] = system: Rat; assay: concentration in plasma after dosing; details: 1 h; dosed: Perfluorohexanoic Acid; 40 mg/kg; iv; Male; F344
[23] = system: Rat; assay: concentration in plasma after dosing; details: 1.5 h; dosed: Perfluorohexanoic Acid; 40 mg/kg; iv; Male; F344
[24] = system: Rat; assay: concentration in liver after dosing; details: 6 h; dosed: Perfluorohexanoic Acid; 80 mg/kg; oral; Female; Harlan Sprague Dawley
[25] = system: Rat; assay: concentration in plasma after dosing; details: 0.75 h; dosed: Perfluorohexanoic Acid; 40 mg/kg; iv; Male; F344
[26] = system: Rat; assay: concentration in plasma after dosing; details: 192 h; dosed: 678-39-7; 12 mg/kg; iv; Male; F344
[27] = system: Rat; assay: concentration in plasma after dosing; details: dosed: 678-39-7, 40 mg/kg, iv, Male, F344
[28] = system: Rat; assay: concentration in kidney after dosing; details: 1 h; dosed: Fluorotelomer alcohol 8+2; 80 mg/kg; oral; Female; Harlan Sprague Dawley
[29] = system: Rat; assay: concentration in kidney after dosing; details: 3 h; dosed: Fluorotelomer alcohol 8+2; 80 mg/kg; oral; Female; Harlan Sprague Dawley
[30] = system: Rat; assay: concentration in kidney after dosing; details: 0.5 h; dosed: Fluorotelomer alcohol 8+2; 24 mg/kg; oral; Male; Harlan Sprague Dawley

Cc1ccc(C)c(OCCCC(C)(C)C(=O)O)c1 [Gemfibrozil]
Details	concentration in plasma [ng/mL]
[1]	596
[2]	424
[3]	405
[4]	127
[5]	640

CC1CCCO1 (configuration not stated) [2-Methyltetrahydrofuran]
Details	concentration in brain [ng/mL]	concentration in plasma [ng/mL]
[6]	23700	–
[7]	26500	–
[8]	–	32200
[9]	30800	–
[10]	–	312
[11]	25400	–
[12]	11400	–

ClC=C(Cl)Cl [trichloroethylene]
[13], inhalation
Details	concentration in blood [ng/mL]
0.1294 h, 600.4 ppm, duration: 4 hr, female, Fischer-344	21900
0.1299 h, 50 ppm, duration: 2 hr, male, Sprague Dawley	443
0.1617 h, 50 ppm, duration: 2 hr, male, Sprague Dawley	402
0.2483 h, 50 ppm, duration: 2 hr, male, Sprague Dawley	454
0.3289 h, 50 ppm, duration: 2 hr, male, Sprague Dawley	492
0.4153 h, 50 ppm, duration: 2 hr, male, Sprague Dawley	352
0.4974 h, 50 ppm, duration: 2 hr, male, Sprague Dawley	493
0.5081 h, 600.4 ppm, duration: 4 hr, female, Fischer-344	15900
0.7511 h, 50 ppm, duration: 2 hr, male, Sprague Dawley	433
1.002 h, 50 ppm, duration: 2 hr, male, Sprague Dawley	555
1.016 h, 600.4 ppm, duration: 4 hr, female, Fischer-344	9420
1.252 h, 50 ppm, duration: 2 hr, male, Sprague Dawley	512
1.531 h, 600.4 ppm, duration: 4 hr, female, Fischer-344	5750
2.018 h, 600.4 ppm, duration: 4 hr, female, Fischer-344	4750
110 s, 50 ppm, duration: 2 hr, male, Sprague Dawley	206
219 s, 50 ppm, duration: 2 hr, male, Sprague Dawley	267
350 s, 50 ppm, duration: 2 hr, male, Sprague Dawley	337

[13], oral
Details	concentration in blood [ng/mL]
0.1447 h, 18 mg/kg, male, Wistar	10200
0.1716 h, 7.6 mg/kg, female, F344	1400
0.1747 h, 18 mg/kg, male, Wistar	7730
0.2208 h, 18 mg/kg, male, Wistar	5020
0.2739 h, 18 mg/kg, male, Wistar	3760
0.3228 h, 18 mg/kg, male, Wistar	2790
0.3309 h, 7.6 mg/kg, female, F344	494
0.3794 h, 18 mg/kg, male, Wistar	2110
0.4319 h, 18 mg/kg, male, Wistar	1710
0.5005 h, 7.6 mg/kg, female, F344	296
0.5204 h, 18 mg/kg, male, Wistar	1350
0.7693 h, 18 mg/kg, male, Wistar	957
1.014 h, 18 mg/kg, male, Wistar	768
1.512 h, 18 mg/kg, male, Wistar	503
2.017 h, 18 mg/kg, male, Wistar	333
2.518 h, 18 mg/kg, male, Wistar	321
3.02 h, 18 mg/kg, male, Wistar	214
3.529 h, 18 mg/kg, male, Wistar	59.6
4.027 h, 18 mg/kg, male, Wistar	47.7
125 s, 7.6 mg/kg, female, F344	1770
143 s, 18 mg/kg, male, Wistar	11100
266 s, 18 mg/kg, male, Wistar	13600
296 s, 7.6 mg/kg, female, F344	2100
355 s, 18 mg/kg, male, Wistar	13000

O=S(=O)([O-])C(F)(F)C(F)(F)C(F)(F)C(F)(F)C(F)(F)C(F)(F)C(F)(F)C(F)(F)F [Perfluorooctane Sulfonate]
Details	concentration in brain [ng/g]	concentration in liver [ng/g]
[14]	1320	–
[16]	–	6900
[17]	–	30300
[20]	–	24500
[21]	–	157000

Details	concentration in plasma [ng/mL]
[15], 6 h	4910
[15], 528 h	2900
[15], 3216 h	277
[18], 5 min	38.2
[18], 12 h	7740
[18], 1200 h	892
[19], 5 min	5510
[19], 24 h	3580
[19], 1200 h	562

O=C(O)C(F)(F)C(F)(F)C(F)(F)C(F)(F)C(F)(F)F [Perfluorohexanoic Acid]
Details	concentration in liver [ng/g]	concentration in plasma [ng/mL]
[22]	–	20100
[23]	–	8050
[24]	820	–
[25]	–	18600

O=C(O)CCC(F)(F)C(F)(F)C(F)(F)C(F)(F)C(F)(F)C(F)(F)C(F)(F)F [Fluorotelomer acid 7+3]
Details	concentration in kidney [ng/g]	concentration in plasma [ng/mL]
[26]	–	8.6
[28]	584	–
[29]	5620	–
[30]	198	–

[27]
Details	concentration in plasma [ng/mL]
0.5 h	470
9 h	2680
